# Like-named read-outs stand apart in the source and are kept apart here.
# Legend:
# Type in all cases: in vitro ADME
# [1] = Ataluren glucuronidation kinetics, human kidney microsomes; conditions: for CLint,u,UGT (scaled) / K m / K m, u / V max: HKM; for CLint,u,UGT (scaled): 12.8 mg protein/g tissue; for K m / K m, u / V max: mean ± SE; for K m / K m, u / V max / fraction unbound at 15 min: n = 3; for fraction unbound at 15 min / microsomal CLint: human, pH 7.5, HKM; for fraction unbound at 15 min: pooled human kidney microsomes incubation mixture, mean ± SD, read-out: fu,inc; for microsomal CLint: pooled human kidney microsomes, read-out: CLint,u,UGT
# Experimental: (§1) Ataluren at 0.5, 2.5, 12.5, 25, 50, 100, 200, and 400 µmol/L, was incubated (n = 3) at 37°C with recombinant human UGT1A9 and with pooled microsomes from human liver, kidney, and intestine (0.025 mg protein/mL, preactivated with alamethicin at 20 µg/mL) in Tris‐HCl buffer (0.1 mol/L, pH 7.5), in the presence of 1 mmol/L EDTA, 5 mmol/L MgCl2, with or without 0.5%, 1%, or 2% BSA. The incubation (100 µL final volume with 0.5% DMSO) was started by adding an equal volume of UDPGA (5 mmol/L) in Tris‐HCl buffer (0.1 mol/L, pH 7.5). After 30 minutes incubation, the incubation mixtures were combined with 0.3 mL of an internal standard solution in acetonitrile with 1% formic acid, followed by membrane plate filtration. The filtrates were used for LC‐MS/MS analysis to quantify the formation of ataluren‐O‐1β‐acyl glucuronide. Detailed LC‐MS/MS conditions are summarized in LC‐MS/MS Analysis section. Ataluren acyl glucuronide formation rate after 30 minutes incubation was calculated using the amount of metabolite formed (pmol) divided by the protein amount in the incubation sample (0.0025 mg) and the incubation time (30 minutes). Ataluren glucuronidation kinetic parameters were determined with and without adjusting BSA binding by nonlinear regression (GraphPad Prism, 5version 5.04, GraphPad Software, Inc.) using Michaelis‐Menten equation which was the best fit compared with other models. The intrinsic clearance was calculated as CLint = Vmax/Km. In order to compare unbound intrinsic clearance by glucuronidation (CLint,u,UGT) in different tissues, CLint,u,UGT was expressed per gram of tissue by correcting the values for the microsomal protein yield, resulting in scaled CLint,u,UGT. Microsomal protein yields of 40.0, 12.8, and 20.6 mg protein/g tissue were used for hepatic, renal, and intestinal data, respectively. ^26
# (§2) The high‐throughput membrane ultrafiltration method ^27 was used to determine the fraction unbound in the incubation (n = 3). Incubation mixtures and procedures were essentially the same as the above except that UDPGA (5 mmol/L) was replaced with Tris‐HCl buffer (0.1 mol/L, pH 7.5). After 15 minutes incubation, aliquot was transferred to a Millipore Multiscreen Ultracel‐10 filter plate (10 kDa molecular mass cut off; EMD Millipore). The plate was centrifuged at 37°C and 3710 g. After 30 minutes centrifugation, aliquots of ultrafiltrates and incubation mixtures prior to ultrafiltration were quenched with an internal standard solution in acetonitrile, followed by membrane plate filtration. The filtrates were used for LC‐MS/MS analysis to quantify the concentration of ataluren. The same LC‐MS/MS conditions described above are summarized in LC‐MS/MS Analysis section. The free fraction = Cu/Cm, where Cu is the concentration of ataluren in the ultrafiltrate and Cm is the concentration of ataluren in the incubation system before centrifugation. Unbound Km (Km, u) was recalculated by applying Michaelis‐Menten equation using free ataluren concentrations after correcting BSA binding at each ataluren and BSA concentration level.
# (§3) Quantification of ataluren‐O‐1β‐acyl glucuronide formation was conducted on an Accela pump and a PAL autosampler equipped with a TSQ Quantum Ultra mass spectrometer (Thermo Fisher Scientific). A Waters Acquity BEH column (C18, 1.7 µm, 50 × 2.1 mm; Waters Cooperation) was used and maintained at 50°C. The mobile phases were 0.1% formic acid in water (A) and acetonitrile (B). The flow rate was 0.6 mL/min and gradient program was as follows: linear gradient from 0% B to 95% B in 0.5 minutes and hold isocratic at 95% B for 1 minute; linear gradient from 95% B to 0% B in 0.1 minutes and hold isocratic at 0% B for 0.4 minutes. TSQ Quantum Ultra mass spectrometer was equipped with a heated electrospray ionization source operated in negative‐ion mode with a vaporizer temperature of 350°C, capillary temperature of 380°C, and spray voltage of 3 kV. […]
# UGT (glucuronidation) = assay: as above; conditions: human, pooled human kidney microsomes, pH 7.5, HKM, 0% BSA; read-out: CLint,u,UGT
# Experimental: as §1, §2, §3
# CYP3A4/5 = assay: CYP induction in primary human hepatocytes: CYP3A4/5; conditions: Testosterone 6β-hydroxylase, 48 hours, n=3
# Experimental: Human hepatocytes isolated from three Caucasian males were transferred to 48‐well collagen‐coated plates at 0.14 × 10^6 cells/well in planting media for attachment. After attachment, planting media was replaced with sandwich media and the cells were incubated until clusters were established. […] The incubation solutions were aspirated and replaced with freshly prepared incubation solutions containing ataluren for an additional 24 hours. […] The incubation solutions were then aspirated and 150 µL of K‐H buffer containing CYP substrates were added. The hepatocytes were incubated for 30 minutes for CYP2C8 (10 µmol/L amodiaquine), 1 hour for CYP3A4 (125 µmol/L testosterone), and 4 hours for CYPs 1A2 (100 µmol/L phenacetin), 2A6 (100 µmol/L coumarin), 2B6 (150 µmol/L bupropion), 2C9 (50 µmol/L tolbutamide), 2C19 (100 µmol/L S‐mephenytoin), and 2E1 (300 µmol/L chlorzoxazone) activity assays. The reactions were stopped by the addition of 0.15 mL of ice‐cold methanol except that coumarin‐treated cells were incubated with β‐glucuronidase and aryl sulfatase for additional 1 hour to free 7‐hydroxycoumarin before the addition of 0.2 mL of ice‐cold methanol. Metabolite formation in incubations with test compounds and control inhibitors was assessed with validated LC‐MS/MS methods for each of the reaction products as described in Table S2. Enzymatic activity for each CYP was calculated using the absolute amount of metabolite formed (pmol) divided by hepatocytes in the incubation (million cells) and the incubation time (minute). The relative fold induction in enzymatic activity was calculated by comparing the rate of metabolite formation for treatment groups to that of the solvent control group (reported as vehicle control%) or positive control group (reported as positive control%).
smiles,measurement,setting,value
"O=C(O)c1cccc(-c2noc(-c3ccccc3F)n2)c1 [ataluren, Ataluren]","human kidney microsomes more active than human liver microsomes in ataluren glucuronidation, in terms of CLint,u/mg protein",[1]; HKM vs HLM,about 3.7 fold
same,"CLint,u,UGT (scaled)",[1]; 0% BSA,4.15 mL/min/g of tissue
same,K m,[1]; 0% BSA,10.8 ± 1.40 µM
same,"K m, u",[1]; 0% BSA,10.8 ± 1.40 µM
same,V max,[1]; 0% BSA,3948 ± 90.3 pmol/min/mg
same,"CLint,u,UGT (scaled)",[1]; 0.5% BSA,12.18 mL/min/g of tissue
same,K m,[1]; 0.5% BSA,33.0 ± 7.36 µM
same,"K m, u",[1]; 0.5% BSA,3.09 ± 0.671 µM
same,V max,[1]; 0.5% BSA,2941 ± 168 pmol/min/mg
same,"CLint,u,UGT (scaled)",[1]; 1% BSA,20.0 mL/min/g of tissue
same,K m,[1]; 1% BSA,36.5 ± 6.31 µM
same,"K m, u",[1]; 1% BSA,1.64 ± 0.334 µM
same,V max,[1]; 1% BSA,2563 ± 137 pmol/min/mg
same,"CLint,u,UGT (scaled)",[1]; 2% BSA,16.5 mL/min/g of tissue
same,K m,[1]; 2% BSA,74.1 ± 8.38 µM
same,"K m, u",[1]; 2% BSA,1.82 ± 0.291 µM
same,V max,[1]; 2% BSA,2342 ± 119 pmol/min/mg
same,"maximal effect of BSA on CLint,u (increase)","[1]; human kidney microsomes, with vs without BSA",~4.8 fold
same,fraction unbound at 15 min,[1]; 0% BSA,1 ± 0.121
same,fraction unbound at 15 min,[1]; 0.5% BSA,0.095 ± 0.003
same,fraction unbound at 15 min,[1]; 1% BSA,0.05 ± 0.002
same,fraction unbound at 15 min,[1]; 2% BSA,0.03 ± 0.003
same,microsomal CLint,[1]; 0.5% BSA,952 µL/min/mg
same,microsomal CLint,[1]; 1% BSA,1560 µL/min/mg
same,microsomal CLint,[1]; 2% BSA,1290 µL/min/mg
same,microsomal CLint,UGT (glucuronidation),324 µL/min/mg
same,"Positive control %, Mean",CYP3A4/5; ataluren 4 µM,0.594%
same,"Vehicle control %, Mean",CYP3A4/5; ataluren 4 µM,103%
same,"Positive control %, Mean",CYP3A4/5; ataluren 40 µM,1.52%
same,"Vehicle control %, Mean",CYP3A4/5; ataluren 40 µM,105%
same,"Positive control %, Mean",CYP3A4/5; ataluren 400 µM,3.72%
same,"Vehicle control %, Mean",CYP3A4/5; ataluren 400 µM,109%

# — article PMC7083565, “In vitro metabolism, reaction phenotyping, enzyme kinetics, CYP inhibition and induction potential of ataluren” (Pharmacology Research & Perspectives, 2020)
